Drawing on patent US20040142979A1, “Heteroarylsulfonylmethyl hydroxamic acids and amides and their use as protease inhibitors” (priority 2002, published 2004), this text covers Ki for twelve compounds.

Common to all, as to type: biochemical
One test addresses T1, Human recombinant MMP-2 (Homo sapiens, UniProt P08253).
T1 construct: made in house; host or cells: MMP-2-transfected p2AHT2 cells
T1 sequence (P08253 110-660): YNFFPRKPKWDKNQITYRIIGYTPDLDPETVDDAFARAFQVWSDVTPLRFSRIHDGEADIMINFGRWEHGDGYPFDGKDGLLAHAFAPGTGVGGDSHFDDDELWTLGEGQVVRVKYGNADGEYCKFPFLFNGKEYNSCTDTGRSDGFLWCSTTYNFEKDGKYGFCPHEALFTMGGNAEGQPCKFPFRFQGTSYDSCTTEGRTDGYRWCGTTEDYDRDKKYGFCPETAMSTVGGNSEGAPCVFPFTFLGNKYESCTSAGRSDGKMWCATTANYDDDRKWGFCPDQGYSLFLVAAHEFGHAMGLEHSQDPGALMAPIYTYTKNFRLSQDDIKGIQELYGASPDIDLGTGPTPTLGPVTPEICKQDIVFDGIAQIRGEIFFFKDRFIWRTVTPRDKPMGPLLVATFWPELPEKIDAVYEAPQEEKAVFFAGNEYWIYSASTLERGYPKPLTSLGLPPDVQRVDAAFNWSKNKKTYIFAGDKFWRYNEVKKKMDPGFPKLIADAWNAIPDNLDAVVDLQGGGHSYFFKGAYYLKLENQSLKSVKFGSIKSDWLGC
Nature of the test: In vitro MMP inhibition analysis (fluorogenic peptide substrate), MMP-2. The settings on record: human recombinant enzyme; 4 μM substrate (A); apparent Ki without substrate correction. The method, then: (§1) Several compounds and salts were analyzed in an in vitro assay to determine their ability to inhibit the MMP cleavage of peptide substrates. Inhibition constant (Ki) were calculated from the assayed compound-MMP interactions.
(§2) Human recombinant MMP-1, MMP-2, MMP-9, MMP-13, and MMP-14 were used in this assay. All enzymes were prepared in Assignee's laboratories following usual laboratory procedures. Protocols for the preparation and use of these enzymes are available in the scientific literature. See, e.g., Enzyme Nomenclature (Academic Press, San Diego, Calif., 1992) (and the citations therein). See also, Freije et al., J. Biol. Chem., 269(24), 16766-16773 (1994).
The MMP-2 proenzyme was purified by gelatin Sepharose chromatography from MMP-2- transfected p2AHT2 cells provided by Dr. Gregory Goldberg of Washington University (St. Louis, Mo.).
(§3) All MMPs were activated using 4-aminophenylmercuric acetate (“APMA”, Sigma Chemical, St. Louis, Mo.) or trypsin. MMP-9 also was activated using human recombinant MMP-3 (purified in Assignee's laboratory following standard cloning and purification techniques).
(§4) The following fluorogenic, methoxycoumarin-containing polypeptide substrate (A) was used in the MMP inhibition assays:
(§5) MCA-ArgProLeuGlyLeuDpaAlaArgGluArgNH2 (A)
(§6) “MCA” is 7-methoxycoumarin-4-yl acetyl. Substrate (A) was prepared Assignee's laboratory. In the absence of MMP inhibitory activity, the substrate is cleaved at the Gly-Leu peptide bond. This cleavage separates the highly fluorogenic peptide from the 2,4-dinitrophenyl quencher, thus resulting in increase of fluorescent intensity.
(§7) The stock solutions of the assayed compounds and salts were prepared in 1% dimethyl sulfoxide (DMSO). These stock solutions were diluted in Buffer A (100 mM Tris-HCl, 100 mM NaCl, 10 mM CaCl2, 0.05% polyoxyethylene 23 lauryl ether, pH 7.5) to obtain solutions with different compound concentrations, i.e., assay solutions with different concentrations of the assayed MMP inhibitory compound. The experiment controls contained the same amount of Buffer A/DMSO as the assayed sample, but contained none of the tested compound or salt.
(§8) The assays from which the Ki determinations were made were performed as follows. The assayed compound samples were incubated in separate wells of untreated white polystyrene plates (Nunc Nalgene International, Rochester, N.Y.), and analyzed on a Tecan SpectraFlour Plus plate reader. The excitation wavelength was 330 nm, and the emission wavelength -420 nm. All samples (assayed compounds and controls) were incubated in separate plate wells at room temperature for 1 hr in the presence of 4 μM of MMP substrate (A). In the absence of MMP inhibitory activity, substrate (A) was cleaved at the Gly-Leu bond resulting in an increase of relative fluorescence. Inhibition was observed as a reduced rate of this increase in relative fluorescence. […] This protocol is a modification of method by Knight et al., FEBS Lett., 296(3), 263-266 (1992). Apparent inhibitory constants were determined by non-linear regression of reaction velocity as a function of inhibitor and enzyme concentration using Morrison's equation, as described by Kuzmic, P., et al., Anal. Biochem., 286(1):45-50 (2000). Modifications were made in the non-linear regression method to allow a common control reaction rate and effective enzyme concentration to be shared between all dose-response relationships on a given assay plate. Since the substrate concentration was chosen to be at or below the Km, the apparent Ki's from this analysis were reported as Ki's without correction for the influence of substrate.
(§9) The above protocols were used to determine MMP inhibition Ki constants for the compounds in Examples 1, 2, and 4-42 above. All Ki values in Table 3 are given in nM units.

For the next test, the target named is T2, Human recombinant MMP-14 (Homo sapiens, UniProt P50281).
T2 construct: The catalytic domain enzyme was expressed in E. Coli inclusion bodies; made in house
Nature of the test: In vitro MMP inhibition analysis (fluorogenic peptide substrate), MMP-14. The settings on record: human recombinant catalytic domain; 4 μM substrate (A); apparent Ki without substrate correction. As for the experimental part:
as §1, §2
The MMP-14 full length cDNA was provided by Dr. Gregory Goldberg of Washington University (St. Louis, Mo.). The catalytic domain enzyme was expressed in E. Coli inclusion bodies, solubilized in urea, purified on a preparative […] reverse phase HPLC column, and then refolded in the presence of zinc acetate and purified for use.
as §3, §4, §5, §6, §7, §8, §9

The target of the next test is T3, Human recombinant MMP-9 (Homo sapiens, UniProt P14780).
T3 construct: made in house; host or cells: MMP-9-transfected HT1080 cells (spent media)
T3 sequence (P14780 107-707 limits assumed): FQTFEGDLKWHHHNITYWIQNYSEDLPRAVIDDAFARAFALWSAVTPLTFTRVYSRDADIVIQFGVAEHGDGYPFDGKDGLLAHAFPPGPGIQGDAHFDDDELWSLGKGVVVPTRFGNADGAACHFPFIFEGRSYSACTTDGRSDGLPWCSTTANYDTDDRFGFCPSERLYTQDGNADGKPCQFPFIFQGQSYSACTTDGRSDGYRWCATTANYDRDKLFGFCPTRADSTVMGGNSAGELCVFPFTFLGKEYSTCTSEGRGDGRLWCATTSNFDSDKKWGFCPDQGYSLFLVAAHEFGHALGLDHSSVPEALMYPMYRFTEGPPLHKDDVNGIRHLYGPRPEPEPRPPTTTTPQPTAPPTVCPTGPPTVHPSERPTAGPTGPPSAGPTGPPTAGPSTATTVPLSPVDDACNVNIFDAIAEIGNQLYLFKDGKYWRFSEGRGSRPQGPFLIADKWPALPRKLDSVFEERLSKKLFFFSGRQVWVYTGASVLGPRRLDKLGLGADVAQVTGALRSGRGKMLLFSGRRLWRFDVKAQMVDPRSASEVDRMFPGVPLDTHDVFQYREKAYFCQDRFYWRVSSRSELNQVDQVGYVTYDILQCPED
The test can be described thus: In vitro MMP inhibition analysis (fluorogenic peptide substrate), MMP-9. The conditions noted are these: human recombinant enzyme; 4 μM substrate (A); apparent Ki without substrate correction. As for the experimental part: as §1, §2
The MMP-9 proenzyme was purified by gelatin Sepharose chromatography from spent media of MMP-9-transfected HT1080 cells provided by Dr. Howard Welgus of Washington University (St. Louis, Mo.).
as §3, §4, §5, §6, §7, §8, §9

With `CC(C)CN(C)C(=O)Cc1ccc(-c2ccc(S(=O)(=O)C3(C(=O)NO)CCOCC3)cn2)cc1` [Example 71], the figures for the Ki at Human recombinant MMP-2, on Human recombinant MMP-14 and at Human recombinant MMP-9 were 553 nM, more than 10000 nM and more than 10000 nM, respectively.
On to `O=C(Cc1ccc(-c2ccc(S(=O)(=O)C3(C(=O)NO)CCOCC3)cn2)cc1)N1CCCCC1` [Example 72], for which the Ki at Human recombinant MMP-2 was 305 nM; at Human recombinant MMP-14, more than 10000 nM; on Human recombinant MMP-9, 7770 nM.
For `CCCCNC(=O)Cc1ccc(-c2ccc(S(=O)(=O)C3(C(=O)NO)CCOCC3)cn2)cc1` [Example 73], the Ki at Human recombinant MMP-2 is 91.8 nM; at Human recombinant MMP-14, more than 10000 nM; at Human recombinant MMP-9, 2220 nM.
Consider `CCCCN(C)C(=O)Cc1ccc(-c2ccc(S(=O)(=O)C3(C(=O)NO)CCOCC3)cn2)cc1` [Example 74], for which the Ki at Human recombinant MMP-2 was 387 nM; at Human recombinant MMP-14, more than 10000 nM; on Human recombinant MMP-9, 4930 nM.
On to `CN(C(=O)Cc1ccc(-c2ccc(S(=O)(=O)C3(C(=O)NO)CCOCC3)cn2)cc1)c1ccc(OC(F)(F)F)cc1` [Example 75], for which the results for the Ki on Human recombinant MMP-2, at Human recombinant MMP-14 and at Human recombinant MMP-9 were 0.218 nM, more than 10000 nM and 0.159 nM, respectively.
In the case of `CCCCNC(=O)c1ccc(-c2ccc(S(=O)(=O)C3(C(=O)NO)CCOCC3)cn2)cc1` [Example 76], the Ki on Human recombinant MMP-2 was 26.3 nM; at Human recombinant MMP-14 it was more than 10000 nM; at Human recombinant MMP-9 it was 428 nM.
On the same counts, the results for `CN(C(=O)c1ccc(-c2ccc(S(=O)(=O)C3(C(=O)NO)CCOCC3)cn2)cc1)c1ccccc1` [Example 78] are 895 nM, more than 10000 nM and 1290 nM.
Take `CCN(CC)C(=O)c1ccc(-c2ccc(S(=O)(=O)C3(C(=O)NO)CCOCC3)cn2)cc1` [Example 79]: the Ki was 8200 nM at Human recombinant MMP-2, more than 10000 nM on Human recombinant MMP-14 and more than 10000 nM at Human recombinant MMP-9.
For `CN(C(=O)c1ccc(-c2ccc(S(=O)(=O)C3(C(=O)NO)CCOCC3)cn2)cc1)c1ccc(OC(F)(F)F)cc1` [Example 81], the values for the Ki at Human recombinant MMP-2, at Human recombinant MMP-14 and on Human recombinant MMP-9 were 2060 nM, more than 10000 nM and 3400 nM, respectively.
`CC(C)CN(C)C(=O)c1ccc(-c2ccc(S(=O)(=O)C3(C(=O)NO)CCOCC3)cn2)cc1` [Example 82]: the Ki was 668 nM on Human recombinant MMP-2, more than 10000 nM on Human recombinant MMP-14 and 894 nM at Human recombinant MMP-9.
`O=C(NO)C1(S(=O)(=O)c2ccc3c(c2)sc2nc(-c4ccccc4)cn23)CCOCC1` [Example 83]: the Ki on Human recombinant MMP-2 was found to be 46.6 nM; on Human recombinant MMP-14, 3150 nM; at Human recombinant MMP-9, 2040 nM.
The matching figures for `O=C(NO)C1(S(=O)(=O)c2ccc(-c3ccc(OC(F)(F)F)cc3)nc2)CCOCC1` [Example 84]: 0.819 nM, 671 nM and 4.26 nM.
